Legend:
[1] = Example 2 plasma pharmacokinetics, normal renal function vs severe renal impairment
[2] = Example 2 urinary pharmacokinetics, normal renal function vs severe renal impairment; settings: for CL renal: human, 160 mg; for 0 to 32 hour urinary recovery (geometric mean) / 0 to 32 hour urinary recovery (mean) / 0 to 32 hour urinary recovery (median): metabolites as cocaine equivalents
Experimental: For the urine analysis of cocaine, BE, and EME, individual urinary recoveries for each analyte were determined over each collection interval as the product of the urine concentration times the urine volume. The total recoveries were determined as the sum of the recoveries over all the intervals. Total urinary recoveries were also expressed as the percentage of the administered dose, after correction for the molecular weight of each analyte. The renal clearances of cocaine, BE, and EME were determined as the urinary recovery (in μg) divided by the plasma AUC over the same time interval (the longest period for which both plasma and urine measurements were available).
Urine was collected prior to dosing and from 0-2, 2-4, 4-8, 8-12, 12-24, and 24-32 hours after the beginning of dose application. […] Testing methods used were consistent with those used by inVentiv Health Clinical Lab, Inc., Miami, Fla., U.S.A. Urinary pharmacokinetic parameters included total urinary recovery (μg), urinary recovery as a percentage of dose, and CLr.

[3] = normal renal function, single intranasal 160 mg cocaine HCl, plasma
[4] = severe renal impairment vs normal renal function
[5] = severe renal impairment vs normal renal function, ANOVA
[6] = severe renal impairment, single intranasal 160 mg cocaine HCl, plasma
[7] = normal renal function, single intranasal 160 mg cocaine HCl
[8] = severe renal impairment, single intranasal 160 mg cocaine HCl

COC(=O)[C@H]1[C@@H](OC(=O)c2ccccc2)C[C@@H]2CC[C@H]1N2C [Cocaine, cocaine, reference compound]
AUC0→t (Max) [1, 3]: 109.9 ng·h/mL
AUC0→t (Min) [1, 3]: 34.29 ng·h/mL
AUC0→∞ (Max) [1, 3]: 110.3 ng·h/mL
AUC0→∞ (Min) [1, 3]: 37.67 ng·h/mL
Clast (Geometric mean) [1, 3]: 0.209 ng/mL
Clast (Max) [1, 3]: 0.626 ng/mL
Clast (Mean) [1, 3]: 0.263 ng/mL
Clast (Median) [1, 3]: 0.154 ng/mL
Clast (Min) [1, 3]: 0.114 ng/mL
Cmax (Max) [1, 3]: 62.7 ng/mL
Cmax (Min) [1, 3]: 16.7 ng/mL
Tlast (Geometric mean) [1, 3]: 20.6 h
Tlast (Max) [1, 3]: 32.0 h
Tlast (Mean) [1, 3]: 22.5 h
Tlast (Median) [1, 3]: 24.0 h
Tlast (Min) [1, 3]: 720 min
Tmax (Max) [1, 3]: 1.500 h
t1/2 (Max) [1, 3]: 10.67 h
t1/2 (Min) [1, 3]: 124 min
CL/F, percent lower than in normal subjects ([1]; renal impairment vs normal renal function): approximately 25%
plasma exposure (geometric mean Cmax, AUC), percent higher than in normal subjects [1, 4]: approximately 33%
AUClast Ratio Impaired/Normal [1, 5]: 134.46%
CL/F Ratio Impaired/Normal [1, 5]: 75.13%
Cmax Ratio Impaired/Normal [1, 5]: 133.28%
AUC0→t (Max) [1, 6]: 221 ng·h/mL
AUC0→t (Min) [1, 6]: 43.0 ng·h/mL
AUC0→∞ (Max) [1, 6]: 227 ng·h/mL
AUC0→∞ (Min) [1, 6]: 44.2 ng·h/mL
Clast (Geometric mean) [1, 6]: 0.159 ng/mL
Clast (Max) [1, 6]: 0.432 ng/mL
Clast (Mean) [1, 6]: 0.186 ng/mL
Clast (Median) [1, 6]: 0.131 ng/mL
Clast (Min) [1, 6]: 0.102 ng/mL
Cmax (Max) [1, 6]: 131.0 ng/mL
Cmax (Min) [1, 6]: 14.1 ng/mL
Tlast (Geometric mean) [1, 6]: 26.9 h
Tlast (Max) [1, 6]: 32.0 h
Tlast (Mean) [1, 6]: 28.0 h
Tlast (Median) [1, 6]: 32.0 h
Tlast (Min) [1, 6]: 720 min
t1/2 (Max) [1, 6]: 8.65 h
t1/2 (Min) [1, 6]: 91.8 min
CL renal ([2]; both, urine, inhaled or intranasal, Renal Clearance, CLr (geometric mean), normal renal function, single intranasal 160 mg cocaine HCl): 26.8 mL/min
CL renal ([2]; both, urine, inhaled or intranasal, Renal Clearance, CLr (geometric mean), severe renal impairment, single intranasal 160 mg cocaine HCl): 17.3 mL/min
CL renal ([2]; both, urine, other: intranasal (drug-soaked pledgets in the nasal cavity), renal clearance, range observed, renally impaired patients, 32 hours from administration): 8.8 to 31.9 mL/min
CL renal ([2]; urine and plasma, inhaled or intranasal, CLr (Geometric Least Squares Mean, ANOVA), Impaired renal function (severe), single intranasal 160 mg cocaine HCl): 17.3 mL/min
CL renal ([2]; urine and plasma, inhaled or intranasal, CLr (Geometric Least Squares Mean, ANOVA), Normal renal function, single intranasal 160 mg cocaine HCl): 26.8 mL/min
CL renal ([2]; urine and plasma, inhaled or intranasal, Renal Clearance (geometric mean), normal renal function, single intranasal 160 mg cocaine HCl): 26.9 mL/min
CL renal ([2]; urine and plasma, inhaled or intranasal, Renal Clearance (geometric mean), severe renal impairment, single intranasal 160 mg cocaine HCl): 17.3 mL/min
CL renal ([2]; urine and plasma, inhaled or intranasal, Renal Clearance (mean), normal renal function, single intranasal 160 mg cocaine HCl): 33.3 mL/min
CL renal ([2]; urine and plasma, inhaled or intranasal, Renal Clearance (mean), severe renal impairment, single intranasal 160 mg cocaine HCl): 20.4 mL/min
CL renal ([2]; urine and plasma, inhaled or intranasal, Renal Clearance (median), normal renal function, single intranasal 160 mg cocaine HCl): 33.6 mL/min
CL renal ([2]; urine and plasma, inhaled or intranasal, Renal Clearance (median), severe renal impairment, single intranasal 160 mg cocaine HCl): 19.6 mL/min
CL renal ([2]; urine and plasma, inhaled or intranasal, Renal Clearance, CLr (mean), normal renal function, single intranasal 160 mg cocaine HCl): 33.3 mL/min
CL renal ([2]; urine and plasma, inhaled or intranasal, Renal Clearance, CLr (mean), severe renal impairment, single intranasal 160 mg cocaine HCl): 20.3 mL/min
CL renal ([2]; urine and plasma, inhaled or intranasal, Renal Clearance, CLr (median), normal renal function, single intranasal 160 mg cocaine HCl): 33.7 mL/min
CL renal ([2]; urine and plasma, inhaled or intranasal, Renal Clearance, CLr (median), severe renal impairment, single intranasal 160 mg cocaine HCl): 19.7 mL/min
0-32 h Urinary Recovery (geometric mean) [2, 7]: 122.8 µg
0-32 h Urinary Recovery (mean) [2, 7]: 164.2 µg
0-32 h Urinary Recovery (median) [2, 7]: 126.6 µg
0 to 32 hour urinary recovery (geometric mean) [2, 7]: 0.086 % of administered dose
0 to 32 hour urinary recovery (mean) [2, 7]: 0.115 % of administered dose
0 to 32 hour urinary recovery (median) [2, 7]: 0.089 % of administered dose
CLr, percent lower (reduction) than in normal subjects [2, 4]: approximately 36%
CLr Ratio Impaired/Normal [2, 5]: 64.33%
0-32 h Urinary Recovery (geometric mean) [2, 8]: 102.7 µg
0-32 h Urinary Recovery (mean) [2, 8]: 138.5 µg
0-32 h Urinary Recovery (median) [2, 8]: 89.8 µg
0 to 32 hour urinary recovery (geometric mean) [2, 8]: 0.072 % of administered dose
0 to 32 hour urinary recovery (mean) [2, 8]: 0.097 % of administered dose
0 to 32 hour urinary recovery (median) [2, 8]: 0.063 % of administered dose
